Test results from US11896423B2, “Time-varying quantification of capacitive and resistive arterial blood flow” (Board of Regents of the University of Nebraska, priority 2018, dated 2024).

Tested on: renal sympathetic tone
Assay: Renal pressure-flow measurements in anesthetized swine before and after renal sympatholysis with intrathecal ropivacaine
Type: in vivo, pigs
From the text: METHODS: Referring to FIG. 4, nine adult male New Zealand White rabbits were implanted with arterial pressure telemeters and bilateral renal flow probes. One kidney of each rabbit was surgically denervated. The rabbits were acclimated to a procedure room and, after a two-week recovery, measurements of arterial pressure and bilateral renal blood flow were obtained in the conscious state. Referring to FIG. 5, ten pigs were induced and then anesthesia was maintained via ketamine-midazolam IV infusion. T9/T10 intrathecal and arterial access were established. A Volcano ComboWire® was placed in the renal artery to measure intravascular pressure and flow velocity. Intrathecal ropivacaine was given to reduce renal sympathetic tone, and renal pressure-flow measurements were repeated.
Referring to FIG. 6, Arterial pressure and renal blood flow measurements were used to estimate resistive flow as a function of time, which was in turn used to derive the renal pressure-flow time-varying transfer function (TVTF). TVTF analysis focused on known sympathetic vaso-motor frequencies (0.2-0.75 Hz in rabbits, 0.03-0.1 Hz in pigs). Control of renal vascular resistance in different states of innervation was characterized by occurrence plots of admittance gain and phase shift of the TVTF. Admittance gain reflects the normalized magnitude of oscillations in renal blood flow; phase shift reflects the timing of renal blood flow oscillations relative to arterial pressure.
Table 2 (below) illustrates the mean hemodynamics of the pigs before (“Baseline”) and after renal sympatholysis with intrathecal ropivacaine (“Ropi”).

## CCCN1CCCC[C@H]1C(=O)Nc1c(C)cccc1C [Ropi, ropivacaine]
Mean hemodynamics of anesthetized pigs after renal sympatholysis with intrathecal ropivacaine (T9/T10), baseline 24 +/− 3
  Renal Blood Flow Velocity: 28 ± 5 cm/s
Mean hemodynamics of anesthetized pigs after renal sympatholysis with intrathecal ropivacaine (T9/T10), baseline 83 +/− 4
  Arterial Pressure: 72 +/− 7 mmHg
Mean hemodynamics of anesthetized pigs after renal sympatholysis with intrathecal ropivacaine (T9/T10), baseline 85 +/− 8
  Heart Rate: 71 +/− 5 bpm
pigs, state PRIOR to intrathecal ropivacaine compared with after (0.03-0.1 Hz)
  Phase asynchrony of the renal pressure-flow time-varying transfer function at known sympathetic vasomotor frequencies: more phase asynchrony
